From the supplement of paper PMC9663587

Tests used:
Assay in all cases: increase in dead-cell fraction, 72 h; higher = more death;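 also: breast cancer cell lines in 384-well plates, stained with Hoechst plus LIVE/DEAD far red dye and imaged, cells above an LDR intensity threshold counted dead, Hoechst-negative corpses included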
[1] = compound: COc1ccc2c(c1)[C@]1(C[C@H]1c1ccc3c(/C=C/c4ccc(CN5C[C@@H](C)O[C@@H](C)C5)cc4)n[nH]c3c1)C(=O)N2
Luminespib/NVP-AUY922 = compound: CCNC(=O)c1noc(-c2cc(C(C)C)c(O)cc2O)c1-c1ccc(CN2CCOCC2)cc1 [Luminespib/NVP-AUY922]
Saracatinib/AZD0530 = compound: CN1CCN(CCOc2cc(OC3CCOCC3)c3c(Nc4c(Cl)ccc5c4OCO5)ncnc3c2)CC1 [Saracatinib/AZD0530]
SHP099 = compound: CC1(CCN(CC1)C2=CN=C(C(=N2)N)C3=C(C(=CC=C3)Cl)Cl)N [SHP099]
Vorinostat = compound: O=C(CCCCCCC(=O)Nc1ccccc1)NO [Vorinostat]
Ceritinib/LDK378 = compound: Cc1cc(Nc2ncc(Cl)c(Nc3ccccc3S(=O)(=O)C(C)C)n2)c(OC(C)C)cc1C1CCNCC1 [Ceritinib/LDK378]
FMF-03-146-1 = compound: CN1CCN(CC1)C2=CC(=C(C=C2)NC3=NC=C4C(=N3)N(C5=CC=CC=C5C(=O)N4CC(F)(F)F)C)OC [FMF-03-146-1]
[2] = compound: CC(=O)Nc1cccc(-n2c(=O)n(C3CC3)c(=O)c3c(Nc4ccc(I)cc4F)n(C)c(=O)c(C)c32)c1
FMF-03-145-1 = compound: CCC(=O)Nc1ccc(C(=O)Nc2ccc(Nc3ncc4c(n3)N(C)c3ccc(C)cc3C(=O)N4C)cc2)cc1 [FMF-03-145-1]
Paclitaxel = compound: CC(=O)O[C@H]1C(=O)[C@@]2(C)[C@H]([C@H](OC(=O)c3ccccc3)[C@]3(O)C[C@H](OC(=O)[C@H](O)[C@@H](NC(=O)c4ccccc4)c4ccccc4)C(C)=C1C3(C)C)[C@]1(OC(C)=O)CO[C@@H]1C[C@@H]2O [Paclitaxel]
Torin2 = compound: C1=CC(=CC(=C1)N2C(=O)C=CC3=CN=C4C=CC(=CC4=C32)C5=CN=C(C=C5)N)C(F)(F)F [Torin2]
AZD6738 = compound: C[C@@H]1COCCN1c1cc(C2([S@](C)(=N)=O)CC2)nc(-c2cc[nH]c3nccc2-3)n1 [AZD6738]

AU565
increase in dead-cell fraction ([1]; 0.0001 µM): 0.0001 | increase in dead-cell fraction ([1]; 0.0003162 µM): -0.0015 | increase in dead-cell fraction ([1]; 0.001 µM): 0.0053 | increase in dead-cell fraction ([1]; 0.003162 µM): 0.016 | increase in dead-cell fraction ([1]; 0.01 µM): 0.139 | increase in dead-cell fraction ([1]; 0.03162 µM): 0.126 | increase in dead-cell fraction ([1]; 0.1 µM): 0.108 | increase in dead-cell fraction ([1]; 0.3162 µM): 0.0794 | increase in dead-cell fraction ([1]; 1 µM): 0.121 | increase in dead-cell fraction (Luminespib/NVP-AUY922; 0.0001 µM): -0.0018 | increase in dead-cell fraction (Luminespib/NVP-AUY922; 0.0003162 µM): -0.0005 | increase in dead-cell fraction (Luminespib/NVP-AUY922; 0.001 µM): -0.0013 | increase in dead-cell fraction (Luminespib/NVP-AUY922; 0.003162 µM): 0.0017 | increase in dead-cell fraction (Luminespib/NVP-AUY922; 0.01 µM): 0.0215 | increase in dead-cell fraction (Luminespib/NVP-AUY922; 0.03162 µM): 0.03 | increase in dead-cell fraction (Luminespib/NVP-AUY922; 0.1 µM): 0.0462 | increase in dead-cell fraction (Luminespib/NVP-AUY922; 0.3162 µM): 0.0389 | increase in dead-cell fraction (Luminespib/NVP-AUY922; 1 µM): 0.0492 | increase in dead-cell fraction (Saracatinib/AZD0530; 0.001 µM): -0.003 | increase in dead-cell fraction (Saracatinib/AZD0530; 0.003162 µM): 0.0003 | increase in dead-cell fraction (Saracatinib/AZD0530; 0.01 µM): 0.0038 | increase in dead-cell fraction (Saracatinib/AZD0530; 0.03162 µM): -0.0046 | increase in dead-cell fraction (Saracatinib/AZD0530; 0.1 µM): -0.0038 | increase in dead-cell fraction (Saracatinib/AZD0530; 0.3162 µM): -0.0029 | increase in dead-cell fraction (Saracatinib/AZD0530; 1 µM): 0.0012 | increase in dead-cell fraction (Saracatinib/AZD0530; 3.162 µM): 0.0017 | increase in dead-cell fraction (Saracatinib/AZD0530; 10 µM): 0.0305 | increase in dead-cell fraction (SHP099; 0.001 µM): -0.0127 | increase in dead-cell fraction (SHP099; 0.003162 µM): -0.0116 | increase in dead-cell fraction (SHP099; 0.01 µM): -0.0073 | increase in dead-cell fraction (SHP099; 0.03162 µM): -0.0133 | increase in dead-cell fraction (SHP099; 0.1 µM): -0.0124 | increase in dead-cell fraction (SHP099; 0.3162 µM): -0.0047 | increase in dead-cell fraction (SHP099; 1 µM): -0.0147 | increase in dead-cell fraction (SHP099; 3.162 µM): 0.0036 | increase in dead-cell fraction (SHP099; 10 µM): -0.0053 | increase in dead-cell fraction (Vorinostat; 0.001 µM): -0.0016 | increase in dead-cell fraction (Vorinostat; 0.003162 µM): 0.0067 | increase in dead-cell fraction (Vorinostat; 0.01 µM): 0.0043 | increase in dead-cell fraction (Vorinostat; 0.03162 µM): 0.0012 | increase in dead-cell fraction (Vorinostat; 0.1 µM): 0.0011 | increase in dead-cell fraction (Vorinostat; 0.3162 µM): -0.0009 | increase in dead-cell fraction (Vorinostat; 1 µM): 0.0099 | increase in dead-cell fraction (Vorinostat; 3.162 µM): 0.142 | increase in dead-cell fraction (Vorinostat; 10 µM): 0.241 | increase in dead-cell fraction (Ceritinib/LDK378; 0.001 µM): -0.0009 | increase in dead-cell fraction (Ceritinib/LDK378; 0.003162 µM): 0.0007 | increase in dead-cell fraction (Ceritinib/LDK378; 0.01 µM): 0.001 | increase in dead-cell fraction (Ceritinib/LDK378; 0.03162 µM): -0.0017 | increase in dead-cell fraction (Ceritinib/LDK378; 0.1 µM): -0.004 | increase in dead-cell fraction (Ceritinib/LDK378; 0.3162 µM): 0.0015 | increase in dead-cell fraction (Ceritinib/LDK378; 1 µM): 0.0037 | increase in dead-cell fraction (Ceritinib/LDK378; 3.162 µM): 0.0216 | increase in dead-cell fraction (FMF-03-146-1; 0.001 µM): -0.0004 | increase in dead-cell fraction (FMF-03-146-1; 0.003162 µM): -0.0059 | increase in dead-cell fraction (FMF-03-146-1; 0.01 µM): -0.0077 | increase in dead-cell fraction (FMF-03-146-1; 0.03162 µM): -0.0019 | increase in dead-cell fraction (FMF-03-146-1; 0.1 µM): -0.007 | increase in dead-cell fraction (FMF-03-146-1; 0.3162 µM): 0.0094 | increase in dead-cell fraction (FMF-03-146-1; 1 µM): 0.0124 | increase in dead-cell fraction (FMF-03-146-1; 3.162 µM): -0.0094 | increase in dead-cell fraction (FMF-03-146-1; 10 µM): 0.0136 | increase in dead-cell fraction ([2]; 0.0001 µM): 0.0026 | increase in dead-cell fraction ([2]; 0.0003162 µM): 0.0025 | increase in dead-cell fraction ([2]; 0.001 µM): 0.0021 | increase in dead-cell fraction ([2]; 0.003162 µM): 0.0022 | increase in dead-cell fraction ([2]; 0.01 µM): 0.0009 | increase in dead-cell fraction ([2]; 0.03162 µM): -0.0017 | increase in dead-cell fraction ([2]; 0.1 µM): -0.0015 | increase in dead-cell fraction ([2]; 0.3162 µM): -0.0026 | increase in dead-cell fraction ([2]; 1 µM): 0.0032 | increase in dead-cell fraction (FMF-03-145-1; 0.0001 µM): 0.0006 | increase in dead-cell fraction (FMF-03-145-1; 0.0003162 µM): 0.0131 | increase in dead-cell fraction (FMF-03-145-1; 0.001 µM): 0.0011 | increase in dead-cell fraction (FMF-03-145-1; 0.003162 µM): 0.0053 | increase in dead-cell fraction (FMF-03-145-1; 0.01 µM): 0.231 | increase in dead-cell fraction (FMF-03-145-1; 0.03162 µM): 0.127 | increase in dead-cell fraction (FMF-03-145-1; 0.1 µM): 0.102 | increase in dead-cell fraction (Paclitaxel; 0.0001 µM): 0.0067 | increase in dead-cell fraction (Paclitaxel; 0.0003162 µM): 0.0015 | increase in dead-cell fraction (Paclitaxel; 0.001 µM): 0.0164 | increase in dead-cell fraction (Paclitaxel; 0.003162 µM): 0.226 | increase in dead-cell fraction (Paclitaxel; 0.01 µM): 0.312 | increase in dead-cell fraction (Paclitaxel; 0.03162 µM): 0.333 | increase in dead-cell fraction (Paclitaxel; 0.1 µM): 0.324 | increase in dead-cell fraction (Paclitaxel; 0.3162 µM): 0.278 | increase in dead-cell fraction (Paclitaxel; 1 µM): 0.303 | increase in dead-cell fraction (Torin2; 0.0001 µM): 0.0019 | increase in dead-cell fraction (Torin2; 0.0003162 µM): 0.0033 | increase in dead-cell fraction (Torin2; 0.001 µM): 0.0025 | increase in dead-cell fraction (Torin2; 0.003162 µM): 0.0127 | increase in dead-cell fraction (Torin2; 0.01 µM): 0.032 | increase in dead-cell fraction (Torin2; 0.03162 µM): 0.0466 | increase in dead-cell fraction (Torin2; 0.1 µM): 0.0874 | increase in dead-cell fraction (Torin2; 0.3162 µM): 0.0982 | increase in dead-cell fraction (Torin2; 1 µM): 0.121 | increase in dead-cell fraction (AZD6738; 0.001 µM): 0.0013 | increase in dead-cell fraction (AZD6738; 0.003162 µM): 0.0103 | increase in dead-cell fraction (AZD6738; 0.01 µM): -0.0124 | increase in dead-cell fraction (AZD6738; 0.03162 µM): -0.0113 | increase in dead-cell fraction (AZD6738; 0.1 µM): -0.0075 | increase in dead-cell fraction (AZD6738; 0.3162 µM): -0.003 | increase in dead-cell fraction (AZD6738; 1 µM): 0.0064 | increase in dead-cell fraction (AZD6738; 3.162 µM): 0.0079 | increase in dead-cell fraction (AZD6738; 10 µM): 0.0831
